Legend:
SCW-induced arthritis = experiment: Efficacy in rats with SCW-induced arthritis (ankle thickness, clinical scores); format: in vivo, rat; details: 5, 20, 50 mg/kg BID oral
Excerpt: A polyarthritis can be induced in female Lewis rats following i.p. administration of streptococcal cell wall (SCW) […] (PG-PS) (J Exp Med 1977; 146:1585-1602). The model has an acute phase (days 3-7) that is complement and neutrophil-dependent and that resolves. A chronic erosive phase begins at about day ten and is dependent on the development of specific T cell immunity to the PG-GS, which resists digestion and remains present in synovial macrophages for months. Like rheumatoid arthritis, SCW-induced arthritis is reduced by TNF inhibitors, and the dependence of SCW-induced arthritis on macrophages (Rheumatology; 2001; 40:978-987) and the strong association of rheumatoid arthritis severity with synovial-tissue macrophage counts (Ann Rheum Dis; 2005; 64:834-838) makes SCW-arthritis an attractive model for testing potential therapeutic agents. SCW PG-PS 10S (Beckton Dickinson Cat#210866) suspended in saline was vortexed for 30 seconds and sonicated for 3 min with a probe type sonicator prior to injection. […]
To induce arthritis, Female Lewis (LEW/N) rats, 5-6 weeks of age (80-100 g) were injected (i.p.) with SCW PG-PS as described above. […] Each ankle was measured 3 times and averaged, and treatment groups were randomized based on ankle thickness (Table 6). […]

[1] = biological target: T1, full-length proMMP9(1-707) (SEQ ID NO:1) (Homo sapiens, UniProt P14780, R574P); experiment: proMMP9/MMP3 P126 Activation Assay; format: biochemical; details: 20 nM proMMP9, 20 nM MMP3, 80 min 37° C.
T1 construct: made in house; host or cells: HEK293 (proMMP9, secreted); E. coli (MMP3)
Experimental: The reaction volume was 50 μL. […] Reactivity of residual MMP3 towards P-126 substrate was minimal under these conditions.

T1 sequence (P14780 20-707 R574P): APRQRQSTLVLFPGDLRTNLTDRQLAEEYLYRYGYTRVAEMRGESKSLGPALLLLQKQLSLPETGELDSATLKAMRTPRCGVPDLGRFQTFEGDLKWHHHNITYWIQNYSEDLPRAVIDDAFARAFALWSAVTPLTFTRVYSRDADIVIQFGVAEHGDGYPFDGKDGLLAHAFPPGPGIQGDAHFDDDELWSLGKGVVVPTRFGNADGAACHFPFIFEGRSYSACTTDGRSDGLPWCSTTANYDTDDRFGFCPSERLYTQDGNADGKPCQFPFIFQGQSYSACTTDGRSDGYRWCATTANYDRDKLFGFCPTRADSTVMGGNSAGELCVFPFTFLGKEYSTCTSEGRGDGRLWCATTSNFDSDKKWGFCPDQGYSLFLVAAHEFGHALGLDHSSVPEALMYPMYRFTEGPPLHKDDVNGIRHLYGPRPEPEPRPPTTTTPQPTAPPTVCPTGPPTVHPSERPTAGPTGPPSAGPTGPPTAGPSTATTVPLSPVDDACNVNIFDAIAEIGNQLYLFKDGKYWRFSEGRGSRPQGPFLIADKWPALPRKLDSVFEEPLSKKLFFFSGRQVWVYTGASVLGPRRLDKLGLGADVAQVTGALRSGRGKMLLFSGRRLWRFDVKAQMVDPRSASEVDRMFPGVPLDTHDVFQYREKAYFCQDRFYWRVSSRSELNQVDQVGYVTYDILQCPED

Cc1nc(C)c(-c2csc(Nc3cc(S(N)(=O)=O)ccc3OC(C)C)n2)s1 [Example 64, 3-(2′,4′-Dimethyl-[4,5′]bithiazolyl-2-ylamino)-4-isopropoxy-benzenesulfonamide.HBr]
ankle thickness measurements, effect of treatment (SCW-induced arthritis; Day 18-26): dose-dependent decrease in ankle thickness measurements | clinical score measurements, effect of treatment (SCW-induced arthritis; significant effects emerging at 20 mg/kg): dose dependent decrease in clinical score measurements | IC50 [1]: 180 nM
